Test results: ChEMBL document CHEMBL1201862, “PubChem BioAssay data set” (2004)
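Briefly, cells in 96-well plates were exposed to five compound concentrations for 48 h, and endpoints were estimated by linear interpolation. Abbreviation: GI50, concentration required for 50% inhibition of growth.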 Activity calls are given as the source filed them. No stated cut-off is given here; in the data, active = GI50 up to about 1.1 µM and inactive = higher.

Experiments:
Assay in all cases: NCI anticancer screen, dose series, 48 h
[1] = system: A498
[2] = system: ACHN
[3] = system: COLO 205
[4] = system: HCC 2998
[5] = system: HCT-15
[6] = system: K562
[7] = system: M14
[8] = system: NCI-H23
[9] = system: OVCAR-5
[10] = system: RPMI-8226
[11] = system: RXF 393
[12] = system: SF-539
[13] = system: SK-MEL-5
[14] = system: SNB-75
[15] = system: TK-10
[16] = system: U-251
[17] = system: UACC-257
[18] = system: UACC-62
[19] = system: PC-3

SMILES | GI50 [1] | GI50 [2] | GI50 [3] | GI50 [4] | GI50 [5] [µM] | GI50 [6] | GI50 [7] | GI50 [8] | GI50 [9] | GI50 [10] | GI50 [11] | GI50 [12] | GI50 [13] | GI50 [14] | GI50 [15] | GI50 [16] | GI50 [17] | GI50 [18] | GI50 [19]
COC(=O)c1nc(N)nc(O)c1CCCCCc1c(O)nc(N)nc1C(=O)OC | > 50 µM (inactive) | > 50 µM (inactive) | > 50 µM (inactive) | > 50 µM (inactive) | > 50 | > 50 µM (inactive) | > 50 µM (inactive) | > 50 µM (inactive) | > 50 µM (inactive) | > 50 µM (inactive) | > 50 µM (inactive) | > 50 µM (inactive) | > 50 µM (inactive) | > 50 µM (inactive) | > 50 µM (inactive) | > 50 µM (inactive) | > 50 µM (inactive) | > 50 µM (inactive) | 
CC1(c2ccccc2)CC(c2cccc([N+](=O)[O-])c2)=NO1 (configuration not stated) | > 100 µM (inactive) | > 100 µM (inactive) | > 100 µM (inactive) | > 100 µM (inactive) | > 100 |  | > 100 µM (inactive) | 89.1 µM (inactive) | > 100 µM (inactive) | 51.3 µM (inactive) |  | > 100 µM (inactive) | 56.2 µM (inactive) | > 100 µM (inactive) | > 100 µM (inactive) | > 100 µM (inactive) | > 100 µM (inactive) |  | 
CCN(CC)c1c(C(=O)/C=C/c2ccc(F)cc2)c(-c2ccccc2)nn(C)c1=O | 7.57 µM (inactive) | 6.9 µM (inactive) | 4.25 µM (inactive) | 3.3 µM (inactive) | 10.4 | 12.4 µM (inactive) | 12.1 µM (inactive) | 4.12 µM (inactive) | 22.4 µM (inactive) | 2.94 µM (inactive) | 3.13 µM (inactive) |  | 8.89 µM (inactive) | 4.51 µM (inactive) | 17.7 µM (inactive) | 5.98 µM (inactive) | 6.89 µM (inactive) | 10.3 µM (inactive) | 
NC1=NN(c2ccccc2)C(=O)C1C(=O)C(=O)Nc1ccc(Cl)c(Cl)c1 (configuration not stated) | > 100 µM (inactive) | 84.5 µM (inactive) | > 100 µM (inactive) | > 100 µM (inactive) | 68.7 | 32 µM (inactive) | > 100 µM (inactive) | > 100 µM (inactive) | > 100 µM (inactive) | > 100 µM (inactive) | > 100 µM (inactive) | > 100 µM (inactive) | > 100 µM (inactive) | 37.2 µM (inactive) | > 100 µM (inactive) | > 100 µM (inactive) | > 100 µM (inactive) | > 100 µM (inactive) | 
COc1ccc2ccnc(Cc3ccc(OCc4ccccc4)c(OC)c3)c2c1 | 21.8 µM (inactive) | 23.6 µM (inactive) |  | 19.3 µM (inactive) | 15.2 | 31 µM (inactive) | 18 µM (inactive) | 19.8 µM (inactive) | 40.3 µM (inactive) | 16.2 µM (inactive) |  | 17.2 µM (inactive) | 15.1 µM (inactive) | 27 µM (inactive) | 27.9 µM (inactive) | 20.9 µM (inactive) | 20.8 µM (inactive) |  | 
COc1cc(C(CC(OC)OC)=C(C#N)C#N)cc(OC)c1OC | 8.13 µM (inactive) | 26.7 µM (inactive) | 9.35 µM (inactive) | 18.7 µM (inactive) | 16.9 |  |  | 28.1 µM (inactive) | > 100 µM (inactive) |  | 25.2 µM (inactive) | 13.7 µM (inactive) | 7.4 µM (inactive) | 22.8 µM (inactive) | 58.3 µM (inactive) | 13.3 µM (inactive) | 18 µM (inactive) | 26.7 µM (inactive) | 
C/C(CC(=O)Nc1cc(Cl)c(Cl)cc1Cl)=N\NS(=O)(=O)c1ccc(C)cc1 | 53.6 µM (inactive) | 25.1 µM (inactive) | 26.8 µM (inactive) | 35.3 µM (inactive) |  | 35.5 µM (inactive) | 34.8 µM (inactive) | 21.6 µM (inactive) | 53.8 µM (inactive) | 27.4 µM (inactive) | 24.9 µM (inactive) | 30.5 µM (inactive) | 38.3 µM (inactive) | 32.6 µM (inactive) | 48.5 µM (inactive) | 32 µM (inactive) | 26 µM (inactive) | 26.5 µM (inactive) | 
CNC(=O)N(C)/N=N/CCCl | > 100 µM (inactive) | > 100 µM (inactive) | > 100 µM (inactive) | > 100 µM (inactive) | > 100 | > 100 µM (inactive) | > 100 µM (inactive) | > 100 µM (inactive) | > 100 µM (inactive) | > 100 µM (inactive) | > 100 µM (inactive) | > 100 µM (inactive) | > 100 µM (inactive) | > 100 µM (inactive) | > 100 µM (inactive) | > 100 µM (inactive) | > 100 µM (inactive) | > 100 µM (inactive) | > 100 µM (inactive)
Cc1c2ccccc2c(=O)n2c(-c3ccccn3)cccc12 | 29.8 µM (inactive) | > 100 µM (inactive) | > 100 µM (inactive) | > 100 µM (inactive) | > 100 | > 100 µM (inactive) | 78.7 µM (inactive) | > 100 µM (inactive) | > 10 µM (inactive) | > 100 µM (inactive) | > 100 µM (inactive) | > 100 µM (inactive) | > 100 µM (inactive) | > 100 µM (inactive) | > 100 µM (inactive) | > 100 µM (inactive) | 94.8 µM (inactive) | > 100 µM (inactive) | 
O=C(Nc1ccccc1-c1nc2ccccc2[nH]c1=O)c1ccccc1 | 20.4 µM (inactive) | 20.1 µM (inactive) | > 100 µM (inactive) | 15.4 µM (inactive) | 35.2 | > 100 µM (inactive) | 59.6 µM (inactive) | 33.7 µM (inactive) | 63.4 µM (inactive) | 21.8 µM (inactive) | 21.2 µM (inactive) | 20.6 µM (inactive) | 32.6 µM (inactive) | 13.8 µM (inactive) | 17.1 µM (inactive) | 23.3 µM (inactive) | 44 µM (inactive) | 26.1 µM (inactive) | 
CSC1=N/C(=C\c2ccc(C)cc2)C(=O)N1CN1CCOCC1 | 98.2 µM (inactive) | 35.4 µM (inactive) | 42.7 µM (inactive) |  | 34.1 | 34.3 µM (inactive) | 95.1 µM (inactive) | 92.7 µM (inactive) | > 100 µM (inactive) | 23.7 µM (inactive) |  |  | 55.8 µM (inactive) | 46.3 µM (inactive) | > 100 µM (inactive) | 40.8 µM (inactive) |  | 93.3 µM (inactive) | 58.9 µM (inactive)
COC(=O)/C(=N\O)C(C(=O)C=C(C)C)C(=O)C(=O)Nc1ccccc1C (configuration not stated) | > 100 µM (inactive) | > 100 µM (inactive) | > 100 µM (inactive) | > 100 µM (inactive) | > 100 | > 100 µM (inactive) | > 100 µM (inactive) | > 100 µM (inactive) | > 100 µM (inactive) | > 100 µM (inactive) | > 100 µM (inactive) | > 100 µM (inactive) | > 100 µM (inactive) | > 100 µM (inactive) | > 100 µM (inactive) | > 100 µM (inactive) | > 100 µM (inactive) | > 100 µM (inactive) | 
CS(=O)(=O)OCCN1CCN(C(=O)c2ccc(Cl)c3c(Nc4ccc(S(=O)(=O)N=C(N)N)cc4)c4ccccc4nc23)CC1 | > 100 µM (inactive) | > 100 µM (inactive) | > 100 µM (inactive) | > 100 µM (inactive) | > 100 | > 100 µM (inactive) | > 100 µM (inactive) | > 100 µM (inactive) | > 100 µM (inactive) | > 100 µM (inactive) | > 100 µM (inactive) | > 100 µM (inactive) | > 100 µM (inactive) | > 100 µM (inactive) | > 100 µM (inactive) | > 100 µM (inactive) | > 100 µM (inactive) | > 100 µM (inactive) | 
Cc1nc2c(O)cc3c4c(=O)n(C)c(=O)n(C)c4n(Cc4ccccc4)c3c2nc1C | 33 µM (inactive) | 17.9 µM (inactive) | 13.3 µM (inactive) | 22.7 µM (inactive) | 17.9 | 34.1 µM (inactive) | 17.6 µM (inactive) | 19.3 µM (inactive) | 22.6 µM (inactive) | 19.1 µM (inactive) | 13.2 µM (inactive) | 16 µM (inactive) | 18.1 µM (inactive) |  | 17.6 µM (inactive) | 18.3 µM (inactive) | 18.4 µM (inactive) | 18.2 µM (inactive) | 16.7 µM (inactive)
CSc1ccc2c(cc1=O)[C@@H](NC(=O)c1ccc(Cl)cc1)CCc1cc(O)c(O)c(O)c1-2 | > 100 µM (inactive) | > 100 µM (inactive) | 62.5 µM (inactive) | > 100 µM (inactive) | 21.6 | 18.2 µM (inactive) | 34.7 µM (inactive) | 32.1 µM (inactive) | > 100 µM (inactive) | 23.3 µM (inactive) | > 100 µM (inactive) | 29.8 µM (inactive) | 50.4 µM (inactive) | 27.7 µM (inactive) | > 100 µM (inactive) | 21.8 µM (inactive) | > 100 µM (inactive) | 22.5 µM (inactive) | 
Cc1c(O)c(=O)ccn1C1OC(CO)C(O)C1O (configuration not stated) | > 100 µM (inactive) | > 100 µM (inactive) | > 100 µM (inactive) |  | 68.1 | 50.4 µM (inactive) | > 100 µM (inactive) |  | > 100 µM (inactive) | > 100 µM (inactive) | > 100 µM (inactive) |  | > 100 µM (inactive) | > 100 µM (inactive) | 68.9 µM (inactive) | > 100 µM (inactive) | > 100 µM (inactive) | 96.2 µM (inactive) | 
